How the values were obtained:
[1] = test system: HEK293T (human embryonic kidney cell); test: cells; details: 72 h
Description: (§1) HMLER (human mammary endothelial cancer cells), HMLER-shEcad (human mammary endothelial cancer stem cells), and MCF-10A (healthy human mammary endothelial) cells were maintained in Mammary Epithelial Cell Growth Medium (MEGM) with supplements and growth factors: bovine pituitary extract (BPE), hydrocortisone, human epidermal growth factor (hEGF), insulin, and gentamicin/amphotericin-B. HEK293T (human embryonic kidney cell), and U2OS (Homo sapiens bone osteosarcoma) cells were maintained in Dulbecco's Modified Eagle's Medium (DMEM) with a final concentration of 10% fetal bovine serum. The cells were grown in T75 flask at 310 K in a humidified atmosphere containing 5% CO2.
(§2) The colourimetric MTT (3-(4,5-dimethylthiazol-2-yl)-2,5-diphenyltetrazolium bromide) assay was used to determine the toxicity of the anticancer peptides and conventional anticancer drugs. 5×10^3 cells were seeded in each well of a 96-well microplate. The cells were incubated overnight. Elevated concentrations of the compounds (0, 0.1, 0.2, 0.4, 0.8, 1.6, 3.1, 6.3, 12.5, 25, 50 and 100 μM) were added and incubated for 72 hr with a total volume 200 μL. The stock solutions of the compounds were prepared as 5 mM solutions in DMSO and diluted using media or in pure water. The final concentration of DMSO in each well was either 0.5% or 0% and this amount was present in the untreated control. After 72 hr, 20 μL of a 4 mg/mL solution of MTT in PBS was added to each well, and the plate was incubated for an additional 4 hr. The MEGM/MTT mixture was aspirated and 100 μL of DMSO was added to dissolve the resulting purple formazan crystals. The absorbance of the solutions in each well was read at 550 nm wavelength. Absorbance values were normalized to either DMSO-containing or non DMSO-containing control wells and plotted as concentration of test compound versus % cell viability. IC50 values were interpolated from the resulting dose dependent curves.
(§3) The peptides were screened against several different human cell lines and their cytotoxicity were determined. Cell lines utilised include MCF-10A (human breast epithelial cell), HMLER (human breast cancer bulk cell), HMLER-shEcad (human breast cancer stem cell), HEK293T (human embryonic kidney cell), and U2OS (human bone osteosarcoma).

[2] = test system: HMLER (human breast cancer bulk cell); test: cells; details: 72 h
Description: as §1, §2, §3

[3] = test system: HMLER-shEcad (human breast cancer stem cell); test: cells; details: 72 h
Description: as §1, §2, §3

[4] = test system: U2OS (human bone osteosarcoma); details: 72 h
Description: as §1, §2, §3

[5] = Tryptophan fluorescent binding assay, POPC vesicles; details: 50 μM peptide, PBS pH 7.4, lipid per peptide
Experimental: (§4) In brief, 50 μM peptides were fixed and incubated with titrated POPC vesicles (black) or 3POPC/1POPG vesicles (grey) at concentrations of 0, 12.5, 25, 50, 100, 250, 500, 1000, 2500, and 5000 μM in phosphate buffered saline (1×, pH 7.4). The lipid concentration that causes 50% peptide binding was determined using a tryptophan fluorescent binding assay and the values are shown as lipid per peptide.
(§5) The lipids 1-palmitoyl-2-oleoyl-sn-glycero-3-phosphocholine (POPC), 1-palmitoyl-2-oleoyl-snglycero-3-phospho-(1′-rac-glycerol) (POPG) were purchased from Avanti Polar Lipids and dissolved in chloroform. Large unilamellar vesicles (LUVs) were produced by extrusion through 100 nm pore filter using an extruder and filters purchased from Avanti Polar Lipids.
(§6) Peptides (50 μM) and POPC/POPG LUVs (600 μM) were prepared in 10 mM phosphate buffer (pH 7.0). The solutions were incubated and measured after 60 minutes. Excitation was fixed at 280 nm (slit 9 nm) and emission was collected from 300 to 450 nm (slit 9 nm). The spectra were recorded using a Synergy H1 Hybrid Multi-Mode Reader (FIG. 3A) and Cytation™ 5 Cell Imaging Multi-Mode Reader (FIG. 2) from BioTek and were averaged over 3 scans.
(§7) Table 3 illustrates the lipid concentration-induced 50% peptide binding onto a liposome. 50 μM peptide was fixed and incubated with titrated lipid (POPC vesicles or 3POPC/1POPG vesicles) at concentrations of 0, 12.5, 25, 50, 100, 250, 500, 1000, 2500, and 5000 μM in phosphate buffered saline (1×, pH 7.4). The lipid concentration that causes 50% peptide binding was determined using tryptophan fluorescent binding assay and the values are shown as lipid per peptide. †N-terminus is free, C-terminus: —W—NH2.

[6] = Tryptophan fluorescent binding assay, 3POPC/1POPG vesicles; details: 50 μM peptide, PBS pH 7.4, lipid per peptide
Experimental: as §4, §5, §6, §7

[7] = ANTS/DPX liposome leakage assay, POPC vesicles; assay type: biochemical; details: 0.5 mM vesicles; for Peptide Concentration-induced 50% ANTS/DPX leakage at pH 4.8, POPC Vesicle: pH 4.8, lipid per peptide; for Peptide Concentration-induced 50% ANTS/DPX leakage at pH 7.4, POPC Vesicle: pH 7.4, lipid per peptide
Experimental: (§8) In brief, 0.5 mM POPC vesicles (grey) or POPC:POPG vesicles (ratio 3:1, black) were incubated with peptide concentrations of 0, 0.02, 0.04, 0.08, 0.16, 0.32, 0.64, 1.25, 2.5, 5, 10, and 20 μM in each A) hydrochloric acid-adjusted phosphate buffered saline (1×, pH 4.8) and B) phosphate buffered saline (1×, pH 7.4).
as §5
(§9) 5 mM ANTS (8-aminonaphthalene-1,3,6-trisulfonic acid, disodium salt) and 12.5 mM DPX (p-xylene-bis-pyridinium bromide) were entrapped in 0.1 μm diameter extruded vesicles with lipids. Gel filtration chromatography using a Sephadex G-100 (GE Healthcare Life Sciences Inc) was used to remove external free ANTS/DPX from LUVs with entrapped contents. LUVs were diluted to 0.5 mM and used to measure the leakage activity by addition of aliquots of peptides. Leakage was measured after 3 h incubation. 10% Triton was used as the positive control to measure the maximum leakage of the vesicle. Fluorescence emission spectra were recorded using excitation and emission wavelength of 350 nm and 510 nm for ANTS/DPX using a BioTek Synergy H1 Hybrid Multi-Mode Reader.
(§10) Table 4 illustrates peptide concentration-induced 50% ANTS/DPX liposome leakage. 0.5 mM POPC and 3POPC/1POPG vesicles were fixed and incubated with titrated peptide concentration ([…]) each in phosphate buffered saline (1×, pH 7.4) and hydrochloric acid-adjusted phosphate buffered saline (1×, pH 4.8). The values are shown as lipid per peptide. †N-terminus is free, C-terminus: —W—NH2.

[8] = ANTS/DPX liposome leakage assay, 3POPC/1POPG vesicles; assay type: biochemical; details: 0.5 mM vesicles; for Peptide Concentration-induced 50% ANTS/DPX leakage at pH 4.8, 3POPC/1POPG Vesicle: pH 4.8, lipid per peptide; for Peptide Concentration-induced 50% ANTS/DPX leakage at pH 7.4, 3POPC/1POPG Vesicle: pH 7.4, lipid per peptide
Experimental: as §8, §5, §9, §10

SMILES | IC50 [1] [µM] | IC50 [2] [µM] | IC50 [3] [µM] | IC50 [4] [µM] | Lipid Concentration-induced 50% Peptide Binding, POPC Vesicle [5] [L/P] | Lipid Concentration-induced 50% Peptide Binding, 3POPC/1POPG Vesicle [6] [L/P] | Peptide Concentration-induced 50% ANTS/DPX leakage at pH 4.8, POPC Vesicle [7] [L/P] | Peptide Concentration-induced 50% ANTS/DPX leakage at pH 7.4, POPC Vesicle [7] [L/P] | Peptide Concentration-induced 50% ANTS/DPX leakage at pH 4.8, 3POPC/1POPG Vesicle [8] [L/P] | Peptide Concentration-induced 50% ANTS/DPX leakage at pH 7.4, 3POPC/1POPG Vesicle [8] [L/P]
CC(C)C[C@H](NC(=O)CN)C(=O)N[C@@H](CC(C)C)C(=O)N[C@@H](Cc1c[nH]cn1)C(=O)N[C@@H](CC(C)C)C(=O)N[C@@H](CC(C)C)C(=O)N[C@@H](CCC(=O)O)C(=O)N[C@@H](CC(C)C)C(=O)N[C@@H](CC(C)C)C(=O)N[C@@H](CC(C)C)C(=O)N[C@@H](CCC(=O)O)C(=O)N[C@@H](C)C(=O)N[C@@H](C)C(=O)NCC(=O)N[C@@H](Cc1c[nH]c2ccccc12)C(N)=O [HEE] | 10.2 ± 0.2 | 6.5 ± 0.71 | 4.95 ± 0.49 | 47.5 ± 11 | 0.58 | 0.50 | 100 | 876 | 122 | 792
CC(C)C[C@H](NC(=O)CN)C(=O)N[C@@H](CC(C)C)C(=O)N[C@@H](Cc1c[nH]cn1)C(=O)N[C@@H](CC(C)C)C(=O)N[C@@H](CC(C)C)C(=O)N[C@@H](Cc1c[nH]cn1)C(=O)N[C@@H](CC(C)C)C(=O)N[C@@H](CC(C)C)C(=O)N[C@@H](CC(C)C)C(=O)N[C@@H](CCCCN)C(=O)N[C@@H](C)C(=O)N[C@@H](C)C(=O)NCC(=O)N[C@@H](Cc1c[nH]c2ccccc12)C(N)=O [HHK] | 5.25 ± 1.48 | 3.15 ± 0.07 | 1.75 ± 0.21 | 12.7 ± 1.91 | 0.68 | 0.20 | 149 | 1133 | 111 | 160
CC(C)C[C@H](NC(=O)CN)C(=O)N[C@@H](CC(C)C)C(=O)N[C@@H](CCC(=O)O)C(=O)N[C@@H](CC(C)C)C(=O)N[C@@H](CC(C)C)C(=O)N[C@@H](CCCCN)C(=O)N[C@@H](CC(C)C)C(=O)N[C@@H](CC(C)C)C(=O)N[C@@H](CC(C)C)C(=O)N[C@@H](CCC(=O)O)C(=O)N[C@@H](C)C(=O)N[C@@H](C)C(=O)NCC(=O)N[C@@H](Cc1c[nH]c2ccccc12)C(N)=O [EKE] | 5.15 ± 0.21 | 1.8 ± 0.28 | 1.3 ± 0.14 | 8 ± 0.71 | 2.75 | 1.63 | 75 | 738 | 438 | 657
CC(C)C[C@H](NC(=O)CN)C(=O)N[C@@H](CC(C)C)C(=O)N[C@@H](CCC(=O)O)C(=O)N[C@@H](CC(C)C)C(=O)N[C@@H](CC(C)C)C(=O)N[C@@H](Cc1c[nH]cn1)C(=O)N[C@@H](CC(C)C)C(=O)N[C@@H](CC(C)C)C(=O)N[C@@H](CC(C)C)C(=O)N[C@@H](Cc1c[nH]cn1)C(=O)N[C@@H](C)C(=O)N[C@@H](C)C(=O)NCC(=O)N[C@@H](Cc1c[nH]c2ccccc12)C(N)=O [EHH] | 5.9 ± 0.14 | 25.4 ± 2.76 | 16.1 ± 3.18 | 117 ± 7 | 0.94 | 0.69 | 386 | 1043 | 80 | 981
CC(C)C[C@H](NC(=O)CN)C(=O)N[C@@H](CC(C)C)C(=O)N[C@@H](CCCCN)C(=O)N[C@@H](CC(C)C)C(=O)N[C@@H](CC(C)C)C(=O)N[C@@H](CCC(=O)O)C(=O)N[C@@H](CC(C)C)C(=O)N[C@@H](CC(C)C)C(=O)N[C@@H](CC(C)C)C(=O)N[C@@H](CCCCN)C(=O)N[C@@H](C)C(=O)N[C@@H](C)C(=O)NCC(=O)N[C@@H](Cc1c[nH]c2ccccc12)C(N)=O [KEK] | 3.2 ± 0.14 | 1.6 ± 0.14 | 1.35 ± 0.07 | 8.15 ± 0.49 | 0.47 | 0.50 | 110 | 1173 | 126 | 438

From patent US20250326794A1, “ANTI-CANCER LEUCINE-RICH PEPTIDES AND USES THEREOF” (KING'S COLLEGE LONDON, priority 2019, published 2025)
